Test results published in patent US20060189602A1, “Pyridazinone compounds” (Anadys Pharmaceuticals, Inc., priority 2004, published 2006).

Target: HCV NS5B polymerase (Hepatitis C virus genotype 1b, UniProt P26663)
Assay: NS5B Polymerase Inhibition Assay
Assay type: biochemical
Conditions: 50 nM enzyme, [α-33P]GTP, oligo (rG13)/poly rC, 75 min at 28° C.
Protocol: NS5B Polymerase Inhibition Assay
Compounds were tested for HCV polymerase inhibition. Assays were performed in a 96-well streptavidin-coated FlashPlate using 50 nM enzyme, 0.5 μCi of [α-^33P]GTP, 0.63 μM GTP, and 250 nM 5′biotinylated oligo (rG13)/poly rC in 20 mM Tris-HCl, pH 7.5, 5 mM MgCl2, 20 mM NaCl, 5 mM dithiothreitol, and 0.1 g/L BSA. The reaction was stopped by aspiration after 75 min at 28° C. and the plate was washed several times. After washing, incorporated radioactivity was counted using a Microbeta scintillation counter.

Chain of HCV NS5B polymerase (P26663 2420-3010): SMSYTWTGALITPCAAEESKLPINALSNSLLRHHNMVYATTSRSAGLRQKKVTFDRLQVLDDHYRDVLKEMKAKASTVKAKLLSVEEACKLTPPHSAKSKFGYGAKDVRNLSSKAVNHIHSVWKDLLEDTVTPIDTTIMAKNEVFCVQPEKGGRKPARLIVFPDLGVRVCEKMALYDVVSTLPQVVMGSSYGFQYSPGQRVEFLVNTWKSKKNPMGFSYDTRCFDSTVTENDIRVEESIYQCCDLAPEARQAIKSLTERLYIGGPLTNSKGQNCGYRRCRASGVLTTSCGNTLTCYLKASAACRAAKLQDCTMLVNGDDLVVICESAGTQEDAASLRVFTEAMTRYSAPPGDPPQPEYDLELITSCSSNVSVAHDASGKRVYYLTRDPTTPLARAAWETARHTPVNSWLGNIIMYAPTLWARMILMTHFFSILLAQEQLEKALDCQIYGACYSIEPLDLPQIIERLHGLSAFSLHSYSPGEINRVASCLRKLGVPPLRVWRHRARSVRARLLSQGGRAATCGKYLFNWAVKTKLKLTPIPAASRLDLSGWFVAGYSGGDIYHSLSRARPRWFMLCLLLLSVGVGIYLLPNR

IC50 [µM] | SMILES
< 10 | CCCCn1nc(CCC(C)C)c(O)c(C2=Nc3ccc(OCC(N)=O)cc3S(=O)(=O)N2)c1=O [Compound 39, 2-{3-[2-Butyl-5-hydroxy-6-(3-methyl-butyl)-3-oxo-2,3-di-hydro-pyridazin-4-yl]-1,1-dioxo-1,2-dihydro-1λ^6-ben-zo[1,2,4]thiadiazin-7-yloxy}-acetamide]
10 to 50 | CCCCc1nn(CCCC)c(=O)c(C2=Nc3ccc(OC)cc3S(=O)(=O)N2)c1O [Compound 40, 2,6-Dibutyl-5-hydroxy-4-(7-methoxy-1,1-dioxo-1,2-dihydro-1λ^6-ben-zo[1,2,4]thiadiazin-3-yl)-2H-pyridazin-3-one]
10 to 50 | CC(C)c1nn(Cc2ccccc2)c(=O)c(C2=Nc3ccccc3S(=O)(=O)N2)c1O [Compound 41, 2-Benzyl-4-(1,1-dioxo-1,2-dihydro-1λ^6-ben-zo[1,2,4]thiadiazin-3-yl)-5-hydroxy-6-isopropyl-2H-py-ridazin-3-one]
< 10 | CCCc1nn(CCC(C)C)c(=O)c(C2=Nc3ccc(OC)cc3S(=O)(=O)N2)c1O [Compound 42, 5-Hydroxy-4-(7-methoxy-1,1-dioxo-1,2-dihydro-1λ^6-ben-zo[1,2,4]thiadiazin-3-yl)-2-(3-methyl-butyl)-6-propyl-2H-py-ridazin-3-one]
< 10 | CCCCc1nn(CCCC)c(=O)c(C2=Nc3ccc(O)cc3S(=O)(=O)N2)c1O [Compound 45, 2,6-Dibutyl-5-hydroxy-4-(7-hydroxy-1,1-dioxo-1,2-dihydro-1λ^6-ben-zo[1,2,4]thiadiazin-3-yl)-2H-pyridazin-3-one]
< 10 | CCCc1nn(CCC(C)C)c(=O)c(C2=Nc3ccc(O)cc3S(=O)(=O)N2)c1O [Compound 46, 5-Hydroxy-4-(7-hydroxy-1,1-dioxo-1,2-dihydro-1λ^6-ben-zo[1,2,4]thiadiazin-3-yl)-2-(3-methyl-butyl)-6-propyl-2H-py-ridazin-3-one]
< 10 | CCCCc1nn(CCCC)c(=O)c(C2=Nc3ccc(OCC(N)=O)cc3S(=O)(=O)N2)c1O [Compound 47, 2-[3-(2,6-Dibutyl-5-hydroxy-3-oxo-2,3-dihydro-pyridazin-4-yl)-1,1-di-oxo-1,2-dihydro-1λ^6-benzo[1,2,4]thiadiazin-7-yl-oxy]-acetamide]
< 10 | CCCc1nn(CCC(C)C)c(=O)c(C2=NS(=O)(=O)c3cc(OCC(N)=O)ccc3N2)c1O [Compound 49, 2-{3-[5-Hydroxy-2-(3-methyl-butyl)-3-oxo-6-propyl-2,3-di-hydro-pyridazin-4-yl]-1,1-dioxo-1,2-dihydro-1λ^6-ben-zo[1,2,4]thiadiazin-7-yloxy}-acetamide]
10 to 50 | CC(C)CCn1nc(-c2cccs2)c(O)c(C2=NS(=O)(=O)c3sc(Cl)cc3N2)c1=O [Compound 50, 4-(2-Chloro-7,7-dioxo-4,7-dihydro-1,7λ^6-dithia-4,6-diaza-inden-5-yl)-5-hydroxy-2-(3-methyl-butyl)-6-thiophen-2-yl-2H-py-ridazin-3-one]
< 10 | CC(C)CCc1nn(CCC(C)C)c(=O)c(C2=NS(=O)(=O)c3cc(OCC(N)=O)ccc3N2)c1O [Compound 51, 2-{3-[5-Hydroxy-2,6-bis-(3-methyl-butyl)-3-oxo-2,3-dihydro-py-ridazin-4-yl]-1,1-dioxo-1,2-dihydro-1λ^6-ben-zo[1,2,4]thiadiazin-7-yloxy}-acetamide]
< 10 | CC(C)c1nn(CCC(C)(C)C)c(=O)c(C2=Nc3ccccc3S(=O)(=O)N2)c1O [Compound 53, 2-(3,3-Dimethyl-butyl)-4-(1,1-dioxo-1,2-dihydro-1λ^6-ben-zo[1,2,4]thiadiazin-3-yl)-5-hydroxy-6-isopropyl-2H-py-ridazin-3-one]
< 10 | COc1ccc2c(c1)S(=O)(=O)NC(c1c(O)c(-c3nccs3)nn(CCC(C)C)c1=O)=N2 [Compound 54, 5-Hydroxy-4-(7-methoxy-1,1-dioxo-1,2-dihydro-1λ^6-ben-zo[1,2,4]thiadiazin-3-yl)-2-(3-methyl-butyl)-6-thiazol-2-yl-2H-py-ridazin-3-one]
< 10 | COc1ccc2c(c1)S(=O)(=O)NC(c1c(O)c(-c3cccs3)nn(CCC(C)(C)C)c1=O)=N2 [Compound 56, 2-(3,3-Dimethyl-butyl)-5-hydroxy-4-(7-methoxy-1,1-dioxo-1,2-di-hydro-1λ^6-benzo[1,2,4]thiadiazin-3-yl)-6-thiophen-2-yl-2H-py-ridazin-3-one]
< 10 | CC(C)c1nn(CCC2CC2)c(=O)c(C2=Nc3ccccc3S(=O)(=O)N2)c1O [Compound 57, 2-(2-Cyclopropyl-ethyl)-4-(1,1-dioxo-1,2-dihydro-1λ^6-ben-zo[1,2,4]thiadiazin-3-yl)-5-hydroxy-6-isopropyl-2H-py-ridazin-3-one]
10 to 50 | COc1ccc2c(c1)S(=O)(=O)NC(c1c(O)c(CCC#N)nn(CCC(C)(C)C)c1=O)=N2 [Compound 58, 3-[1-(3,3-Dimethyl-butyl)-4-hydroxy-5-(7-methoxy-1,1-dioxo-1,2-di-hydro-1λ^6-benzo[1,2,4]thiadiazin-3-yl)-6-oxo-1,6-di-hydro-pyridazin-3-yl]-propionitrile]
< 10 | Cc1ccc(-c2nn(Cc3ccccc3)c(=O)c(C3=Nc4ccccc4S(=O)(=O)N3)c2O)s1 [Compound 59, 2-Benzyl-4-(1,1-dioxo-1,2-dihydro-1λ^6-ben-zo[1,2,4]thiadiazin-3-yl)-5-hydroxy-6-(5-methyl-thiophen-2-yl)-2H-py-ridazin-3-one]
< 10 | COc1ccc2c(c1)S(=O)(=O)NC(c1c(O)c(-c3sccc3C)nn(CCC(C)C)c1=O)=N2 [Compound 61, 5-Hydroxy-4-(7-methoxy-1,1-dioxo-1,2-dihydro-1λ^6-ben-zo[1,2,4]thiadiazin-3-yl)-2-(3-methyl-butyl)-6-(3-methyl-thio-phen-2-yl)-2H-pyridazin-3-one]
10 to 50 | CC(C)c1nn(CC2CCC2)c(=O)c(C2=Nc3ccccc3S(=O)(=O)N2)c1O [Compound 63, 2-Cyclobutylmethyl-4-(1,1-dioxo-1,2-dihydro-1λ^6-ben-zo[1,2,4]thiadiazin-3-yl)-5-hydroxy-6-isopropyl-2H-py-ridazin-3-one]
< 10 | Cc1ccc(-c2nn(CCC(C)(C)C)c(=O)c(C3=NS(=O)(=O)c4cc(OCC(N)=O)ccc4N3)c2O)s1 [Compound 64, 2-{3-[2-(3,3-Dimethyl-butyl)-5-hydroxy-6-(5-methyl-thiophen-2-yl)-3-ox-o-2,3-dihydro-pyridazin-4-yl]-1,1-dioxo-1,2-di-hydro-1λ^6-benzo[1,2,4]thiadiazin-7-yloxy}-acetamide]
< 10 | Cc1ccsc1-c1nn(CCC(C)C)c(=O)c(C2=NS(=O)(=O)c3cc(OCC(N)=O)ccc3N2)c1O [Compound 65, 2-{3-[5-Hydroxy-2-(3-methyl-butyl)-6-(3-methyl-thiophen-2-yl)-3-ox-o-2,3-dihydro-pyridazin-4-yl]-1,1-dioxo-1,2-dihydro-1λ^6-ben-zo[1,2,4]thiadiazin-7-yloxy}-acetamide]
10 to 50 | COc1ccc2c(c1)S(=O)(=O)NC(c1c(O)c(C(C)(C)C)nn(CCC(C)(C)C)c1=O)=N2 [Compound 66, 6-tert-Butyl-2-(3,3-dimethyl-butyl)-5-hydroxy-4-(7-methoxy-1,1-di-oxo-1,2-dihydro-1λ^6-benzo[1,2,4]thiadiazin-3-yl)-2H-py-ridazin-3-one]
< 10 | CC(C)(C)CCn1nc(C(C)(C)C)c(O)c(C2=Nc3ccc(O)cc3S(=O)(=O)N2)c1=O [Compound 67, 6-tert-Butyl-2-(3,3-dimethyl-butyl)-5-hydroxy-4-(7-hydroxy-1,1-di-oxo-1,2-dihydro-1λ^6-benzo[1,2,4]thiadiazin-3-yl)-2H-py-ridazin-3-one]
